Laboratory results published in US20160000066A1, “Furfural derivatives as a vehicle” (priority 2013, published 2016).

Assays:
Type in all cases: physicochemical
[1] = Solubilization of resins in the test solvent: BADGE DER 331; settings: BADGE DER 331 in the compound as solvent
Description: (§1) The following table lists the solubilities obtained for four resins tested: BADGE DER 331 epoxy resin sold by DOW CHEMICAL, Palatal A400-01 polyester resin sold by DSM, Novolac DEN 425 epoxy resin sold by DOW CHEMICAL and TGPA resin available from Sigma Aldrich.
(§2) A single solubility test was carried out per solvent/resin pair, at a working concentration of 100 g/l, at ambient temperature. The tests were carried out on the milliliter scale (i.e., 0.5 g/5 ml). The tests are carried out in transparent glass flasks. The resin (0.5 g) is weighed into the flask and then the required volume (5 ml) of test solvent is introduced into this same flask. Stirring is carried out using a vortex mixer for 1 to 5 minutes. The results for solubility of the resins in the solvents tested, shown in the table below, are obtained by visual observations.

[2] = Solubilization of resins in the test solvent: Palatal A400-01; settings: Palatal A400-01 in the compound as solvent
Description: as §1, §2

[3] = Solubilization of resins in the test solvent: Novolac DEN 425; settings: Novolac DEN 425 in the compound as solvent
Description: as §1, §2

[4] = Solubilization of resins in the test solvent: TGPA; settings: TGPA in the compound as solvent, visual
Description: as §1, §2

[5] = adjusted protocol: solvent heated on a water bath at 30° C. before the test

For `COC(=O)c1ccco1` [(8)], the “Solubility at ambient temperature (100 g/l)” value (“Solubility” below) ([1]; ambient temperature, visual) was “Soluble”, the “Solubility” value ([2]; ambient temperature, visual) was “Soluble” and the “Solubility” value ([3]; ambient temperature, visual) was “Soluble”. For the same compound, the “Solubility” value [4] was “Soluble”.

With `CCCCCCCCN=Cc1ccco1` [(16)] the “Solubility” value ([1]; ambient temperature, visual) was “Partial”, the “Solubility” value ([2]; ambient temperature, visual) was “Soluble” and the “Solubility” value ([3]; ambient temperature, visual) was “Soluble”. The “Solubility” value [4] was “Soluble”.

In the case of `CCCOC(=O)c1ccco1` [(6)], the “Solubility” value ([1]; ambient temperature, visual) is reported as “Partial”, the “Solubility” value ([2]; ambient temperature, visual) is reported as “Soluble” and the “Solubility” value ([3]; ambient temperature, visual) is reported as “Soluble”.

With `CC(C)C(=O)/C=C/c1ccco1` [(3)] the “Solubility” value ([1]; ambient temperature, visual) was “Soluble”, the “Solubility” value ([2]; ambient temperature, visual) was “Soluble” and the “Solubility” value ([3]; ambient temperature, visual) was “Soluble”. For the same compound, the “Solubility” value [4] was “Soluble”.

For `CC(=O)/C=C/c1ccco1` [(1)], the “Solubility” value [1, 5] was “Soluble*”, the “Solubility” value [2, 5] was “Soluble*” and the “Solubility” value [3, 5] was “Soluble*”.

In the case of `O=C(OCCc1ccccc1)c1ccco1` [(10)], the “Solubility” value ([1]; ambient temperature, visual) is reported as “Soluble”, the “Solubility” value ([2]; ambient temperature, visual) is reported as “Soluble” and the “Solubility” value ([3]; ambient temperature, visual) is reported as “Soluble”. The “Solubility” value [4] was “Soluble”.

In the case of `CCCCCOC(=O)c1ccco1` [(9)], the “Solubility” value ([1]; ambient temperature, visual) is reported as “Soluble”, the “Solubility” value ([2]; ambient temperature, visual) is reported as “Soluble” and the “Solubility” value ([3]; ambient temperature, visual) is reported as “Soluble”. For the same compound, the “Solubility” value [4] was “Soluble”.

For `CCCCN=Cc1ccco1` [(15)], the “Solubility” value ([1]; ambient temperature, visual) was “Partial”, the “Solubility” value ([2]; ambient temperature, visual) was “Soluble” and the “Solubility” value ([3]; ambient temperature, visual) was “Soluble”. The “Solubility” value [4] was “Soluble”.

For `Cc1ccc(C=O)o1` [(17)], the “Solubility” value ([1]; ambient temperature, visual) was “Soluble”, the “Solubility” value ([2]; ambient temperature, visual) was “Soluble” and the “Solubility” value ([3]; ambient temperature, visual) was “Soluble”. For the same compound, the “Solubility” value [4] was “Soluble”.
